Columns and labels:
[1] = tested on: stage-4 melanoma patients; assay: Ipilimumab treatment of stage-4 metastatic melanoma patients: response and survival; format: in vivo, human
Procedure: The percentage of MDSC with the profile CD11b^+CD33^+HLA-DR^− was measured in peripheral blood samples (3-5 ml) of healthy donors (n=40) and stage-4 melanoma patients (n=56) prior to ipilimumab (anti-CTLA4) treatment. All the melanoma patients were diagnosed with metastatic melanoma. The samples were taken according to the Helsinki approval. Clinical parameters were acquired from the medical records of patients.
In order to evaluate whether MDSC levels in the blood can predict responsiveness to treatment with the anti CTLA4 antibody ipilimumab, the levels of MDSC in the peripheral blood of melanoma patients were measured, as described above, prior to treatment with ipilimumab. […] As shown in FIG. 3A there was a strike correlation between high levels of MDSC in the peripheral blood of patients and subsequent failure to respond to treatment with ipilimumab. Clearly, this parameter could distinguish between the two groups of melanoma patients. In addition, the level of lactate dehydrogenase (LDH) was evaluated before the treatment with ipilimumab began. There was no significant difference between the groups of patients with respect to this parameter (FIG. 3B).
The following experiment was performed in order to evaluate whether MDSC levels in the blood can predict metastatic severity and patient survival. The levels of MDSC, as well as the levels of LDH, were measured in the peripheral blood of melanoma patients, as described above, prior to treatment with ipilimumab. […] In addition, as shown in FIG. 4B higher MDSCs levels are found in the group of patients with high LDH levels (LDH low<480 U/I; LDH high>480 U/I). In addition, the melanoma patients were divided into two groups according to their MDSCs levels measured prior to the ipilimumab treatments; one group was termed Low MDSCs (<55.5%, n=39) and the other group was termed High MDSCs (>55.5%, n=14). The percent survival and their survival in months were evaluated. […] The survival in months of the Low MDSCs group being 11.56±1.2 (n=39) and of the High MDSCs group being 6.857±1.4 (n=14). Apparently, high MDSC levels are predictors of a more severe metastatic profile and of a shorter survival time of the cancer patient.
In this experiment the survival of melanoma patients was correlated with the severity of their metastatic stage and with their LDH levels. The patients were divided into two groups according to their metastatic level prior to ipilimumab treatments; the first group included patients with the relatively lower metastatic severity, namely M1A/B/C, and the second group included patients with the higher, M2, metastatic severity. As shown in FIGS. 5A and 5B the survival of patients in the M1A/B/C group was higher than the survival of the patients in the M2 group, being 12.4±1.2 months (n=35) in the M1A/B/C group and 6.1±1.1 months (n=18) in the M2 group. The patients were divided into two groups according their LDH levels prior to ipilimumab treatments; the first group included patients with the relatively lower LDH level, namely LDH<480 U/I; and the second group included patients with the higher LDH level, namely LDH>480 U/I. As shown in FIGS. 5C and 5D the survival of patients in the LDH low group was higher than the survival of the patients in the LDH high group, being 13.5±1.4 months (n=28) in the LDH low group and 6.6±0.9 months (n=20) in the LDH high group. Apparently, high LDH levels and a severe metastatic stage are predictors of a shorter survival time of the cancer patient.
These patients had high LDH levels on the day the first ipilimumab treatment was given and their staging level was M1C.

β-catenin = β-catenin immunohistochemistry of colons of CRC-mice; format: in vivo, mouse
Gr1^+CD11b^+ MDSCs = assay: MDSC accumulation in colon, spleen and PBLs of CRC-mice; format: in vivo, mouse
MDSCs [2] = assay: NO^− and ROS production by MDSCs of treated CRC-mice (flow cytometry); format: in vivo, mouse
[3] = tested on: MDSCs isolated from spleens of CRC-mice; assay: NO^− and ROS production in ex vivo cultured MDSCs; format: cell-based, mouse; conditions: 2.5 μmol/L, 24 h
T-cells = assay: CFSE T-cell proliferation assay, splenocytes of CRC-mice; format: in vivo, mouse; conditions: CFSE-labeled Thy1.2^+ T-cells, TCR-CD28 mediated activation, vs untreated CRC-mice
Procedure: (§1) Splenocytes or purified T-cells isolated by a magnetic column separation system (Miltenyi Biotec) were labeled with 5 M CFSE (Invitrogen) and subjected to TCR-mediated activation as previously described (16). Next, the effect of the given chemotherapies on the immune status was evaluated. This was performed by testing the function of the whole T-cell population (FIG. 9J) as well as the CD8^+ T-cells (FIG. 9K) in all experimental groups along with measurements of the expression levels of CD247 in CD3^+ (FIG. 9L) and in CD8^+ T-cells (FIG. 9M). T-cell proliferative response was assessed by monitoring cell divisions of gated CFSE-labeled Thy1.2^+ (CD90^+) T-cells upon TCR-CD28 mediated activation.

CD247 = CD247 expression in T-cells of CRC-mice; format: in vivo, mouse; conditions: splenocytes of CRC-mice
Procedure: as §1, with “Next,” for “Splenocytes or purified T-cells isolated by a magnetic column separation system (Miltenyi Biotec) were labeled with 5 M CFSE (Invitrogen) and subjected to TCR-mediated activation as previously described (16). Next,”

CRC-mice [4] = assay: Vitality and survival of CRC-mice; format: in vivo, mouse; conditions: daily recorded, compared to 5FU, CPT11 treated MDSC depleted or untreated CRC-mice
Procedure: Therefore, MDSC depletion could reduce the harmful effect of CPT11 on the immune status, and thereby enhance the anti-tumor effect. CRC-mice were subjected to either 5FU, CPT11 or a 5FU/CPT11 combination starting at week eight, or were untreated. At the same day of the second DSS administration, CPT11-treated CRC-mice were randomly separated into two groups; one group continued with CPT11 treatment while the second group was treated with anti-Gr1 mAb for MDSC depletion in addition to CPT11 treatment. Three weeks after the second DSS treatment mice were sacrificed and PBLs (FIG. 10B) and colons (FIG. 10C) were analyzed. […] This pattern indicates a beneficial effect of 5FU that attenuates CRC progression with a harmful contribution of CPT11, supporting immunosuppression and tumor progression via its effects on MDSCs.

cleaved caspase-3 = assay: Cleaved caspase-3 in splenic MDSCs of treated CRC-mice; format: in vivo, mouse
[5] = tested on: MDSCs isolated from spleens of CRC mice; assay: Cleaved caspase-3 in ex vivo cultured MDSCs, DCs and macrophages; format: cell-based, mouse; conditions: ex vivo, various doses, 3 days, dose-dependent
CRC-derived MDSC = assay: Ex vivo GM-CSF mediated myeloid-cell differentiation; format: cell-based, mouse; conditions: 10 ng/ml GM-CSF, 72 h, vs GM-CSF only
TNFα, S100A9 = assay: TNFα and S100A9 mRNA in ex vivo cultured MDSCs (Real Time PCR); format: cell-based, mouse; conditions: 3 days
MDSCs [6] = assay: BCG chronic inflammation mouse model: MDSC levels; format: in vivo; conditions: PBLs and spleen, compared to inflamed-untreated mice
Procedure: (§2) Mice were injected intraperitoneally with 10 mg/kg body weight of Azoxymethan (AOM, purchased from Sigma-Aldrich (St. Louis, Mo., USA)) dissolved in physiological saline twice in two weeks intervals. Two weeks later, 2% dextran sulfate sodium (DSS, purchased from MP biochemicals Inc. (Santa Ana, Calif., USA)) was given in the drinking water over 7 days, followed by 14 days of regular water (15). This cycle was repeated twice. Animals were sacrificed and analyzed three weeks after the last treatment. To induce a pathology-free chronic inflammation, a previously described protocol subjecting mice to heat-killed Mycobacterium […] (BCG) treatment (16) was used.
(§3) Next, the immunoregulatory effects of 5FU and CPT11 were examined in a mouse model for chronic inflammation and associated immunosuppression (10), as described in the materials and method section above and in FIG. 13A. This experiment was performed in order to investigate whether the differential effects of the drugs are related to the presence of the tumor. Briefly, the mouse model for chronic inflammation was established by three repeated injections of heat-killed BCG bacteria. A day after the second BCG injection, mice were treated twice a week with 5FU, CPT11 or a 5FU/CPT11 combination. […] No changes in CD4^+Foxp3^+ Tregs percentage were detected (FIG. 13H), confirming that these chemotherapies specifically affect MDSCs.

MDSCs [7] = assay: BCG chronic inflammation mouse model: ROS and NO^− production by MDSCs; format: in vivo; conditions: splenic MDSCs, compared to inflamed-untreated mice
Procedure: as §2, §3

CRC-mice [8] = tested on: CRC-mice
MDSCs [9] = assay: Myeloid cell differentiation in vivo in CRC-mice
S100A8/9 = conditions: MDSCs from spleen of CRC-mice

Compound: ipilimumab: humanized anti-CTLA4 monoclonal antibody
- survival in months ([1]; LDH high group (>480 U/I, n=20) prior to ipilimumab): 6.6±0.9 months
- survival in months ([1]; LDH low group (<480 U/I, n=28) prior to ipilimumab): 13.5±1.4 months
- survival in months ([1]; M1A/B/C group (n=35), metastatic level prior to ipilimumab): 12.4±1.2 months
- survival in months ([1]; M2 group (n=18), metastatic level prior to ipilimumab): 6.1±1.1 months
- survival in months ([1]; melanoma patients, High MDSCs group (>55.5%, n=14) prior to ipilimumab): 6.857±1.4 months
- survival in months ([1]; melanoma patients, Low MDSCs group (<55.5%, n=39) prior to ipilimumab): 11.56±1.2 months
- patients that responded to the ipilimumab treatment ([1]; out of the 56 patients involved in this study): 14 patients

Compound: CCc1c2c(nc3ccc(OC(=O)N4CCC(N5CCCCC5)CC4)cc13)-c1cc3c(c(=O)n1C2)COC(=O)[C@]3(O)CC [CPT11, Irinotecan]
- β-catenin localization in CRC colons (β-catenin): massive β-catenin accumulation in the nuclei of tumor cells
- MDSCs within the colon (immunohistochemical probing) (Gr1^+CD11b^+ MDSCs; anti-Gr-1 staining): elevated levels of the cells
- MDSC numbers / infiltration in colon (Gr1^+CD11b^+ MDSCs; lamina propria and epithelium, flow cytometry, vs untreated CRC-mice): increased MDSC numbers
- NO^− production (MDSCs [2]; lamina propria and epithelial MDSCs, vs untreated CRC mice): NO^− levels remained elevated
- NO^− and ROS production (MDSCs [2]; splenic MDSCs, compared to untreated CRC-mice): elevated levels
- NO^− and ROS production in monocytic and granulocyte MDSC populations [3]: increased NO^− (FIG. 9H) and ROS (FIG. 9I) production
- NO^− or ROS production in purified cultured MDSCs [3]: resulted in their elevation
- T-cell proliferative ability (T-cells): decreased T-cell proliferative ability
- CD247 expression levels in T-cells (CD247): low CD247 levels
- vitality and survival of the mice (CRC-mice [4]): increased death rates
- cleaved caspase-3 expression in spleen MDSCs (cleaved caspase-3): decreased cleaved caspase-3 levels
- cleaved caspase-3 in purified cultured MDSCs [5]: not CPT11 leads to cleaved caspase-3 up-regulation
- GM-CSF mediated CRC-derived MDSC differentiation (CRC-derived MDSC): prevented cell differentiation
- mRNA levels of TNFα and S100A9 (TNFα, S100A9): increased mRNA levels
- MDSC levels (MDSCs [6]): induced opposite effects
- ROS and NO^− production (MDSCs [7]): induced opposite effects
- spleen size (inflammatory response) (CRC-mice [8]; compared to 5FU treated CRC- or control-mice): enlarged spleen size
- tumor load within the colon (hematoxylin-eosin histopathology) (CRC-mice [8]; monotherapy for three weeks, vs untreated CRC mice): no apparent differences in tumor loads
- histopathological analysis of colon sections (hematoxylin-eosin) (CRC-mice [8]; three weeks after second DSS treatment): differentiated adenocarcinoma
- histological analyses of colons (CRC-mice [8]; treated CRC-mice): not only a loss of entire crypts and surface epithelial layer, but also a massive leukocyte infiltration into the mucosa
- myeloid cell differentiation in vivo (DCs and macrophages) (MDSCs [9]): blocked myeloid cell differentiation
- S100A8/9 mRNA and protein levels (S100A8/9): increased S100A8/9 levels

— patent publication US20170261507A1, “Methods for Predicting and Monitoring Cancer Patients' Response to Teatment by Measuring Myeloid Derived Suppressor Cells (MDSCs)” (YISSUM RESEARCH DEVELOPMENT COMPANY OF THE HEBREW …, priority 2014, published 2017)
